Test results as given in ChEMBL document CHEMBL1177794, “Broad spectrum alkynyl inhibitors of T315I Bcr-Abl” (Bioorg Med Chem Lett, 2010).

Key:
[1] = system: Epidermal growth factor receptor (Homo sapiens), P00533 [UNDEFINED MUTATION]; assay: Inhibition of EGFR L747-E749del, A750P mutant at 10 uM; values are per cent of control
[2] = molecular target: Casein kinase I isoform gamma-1 (Homo sapiens) (UniProt Q9HCP0); assay: Inhibition of CSNK1G1 at 10 uM; values are per cent of control
[3] = molecular target: Cyclin-dependent kinase-like 2 (Homo sapiens) (UniProt Q92772); assay: Inhibition of CDKL2 at 10 uM; details: values are per cent of control
[4] = molecular target: Casein kinase I isoform epsilon (Homo sapiens) (UniProt P49674); assay: Inhibition of CSNK1E at 10 uM; values are per cent of control
[5] = molecular target: Phosphorylase b kinase gamma catalytic chain, liver/testis isoform (Homo sapiens) (UniProt P15735); assay: Inhibition of PHKG2 at 10 uM
Phosphorylase b kinase gamma catalytic chain, liver/testis isoform (Homo sapiens), sequence (P15735 whole entry, canonical isoform): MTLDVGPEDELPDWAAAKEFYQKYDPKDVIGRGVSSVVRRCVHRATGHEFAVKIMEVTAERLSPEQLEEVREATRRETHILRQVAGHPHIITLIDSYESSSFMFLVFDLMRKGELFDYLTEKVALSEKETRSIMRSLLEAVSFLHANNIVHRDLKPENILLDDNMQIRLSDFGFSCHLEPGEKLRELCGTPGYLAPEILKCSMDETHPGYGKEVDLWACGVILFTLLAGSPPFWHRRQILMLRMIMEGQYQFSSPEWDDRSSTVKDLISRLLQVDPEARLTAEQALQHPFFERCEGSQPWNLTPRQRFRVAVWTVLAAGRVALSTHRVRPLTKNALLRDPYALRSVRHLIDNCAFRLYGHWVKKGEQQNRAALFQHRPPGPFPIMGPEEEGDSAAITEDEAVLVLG

[6] = system: Phosphatidylinositol 4,5-bisphosphate 3-kinase catalytic subunit alpha isoform (Homo sapiens), P42336 [E542K]; assay: Inhibition of PIK3CA E542K mutant at 10 uM
[7] = molecular target: Phosphatidylinositol 4-phosphate 3-kinase C2 domain-containing subunit beta (Homo sapiens) (UniProt O00750); assay: Inhibition of PIK3C2B at 10 uM
[8] = molecular target: Serine/threonine-protein kinase mTOR (Homo sapiens) (UniProt P42345); assay: Inhibition of MTOR at 10 uM; values are per cent of control
[9] = molecular target: Mitogen-activated protein kinase kinase kinase 3 (Homo sapiens) (UniProt Q99759); assay: Inhibition of MAP3K3 at 10 uM; details: values are per cent of control
[10] = system: Tyrosine-protein kinase ABL1 (Homo sapiens), P00519 [T315I]; assay: Inhibition of non phosphorylated ABL1 T315I mutant at 10 uM; details: values are per cent of control
[11] = molecular target: Receptor-interacting serine/threonine-protein kinase 4 (Homo sapiens) (UniProt P57078); assay: Inhibition of RIPK4 at 10 uM
Receptor-interacting serine/threonine-protein kinase 4 (Homo sapiens), sequence (P57078 whole entry): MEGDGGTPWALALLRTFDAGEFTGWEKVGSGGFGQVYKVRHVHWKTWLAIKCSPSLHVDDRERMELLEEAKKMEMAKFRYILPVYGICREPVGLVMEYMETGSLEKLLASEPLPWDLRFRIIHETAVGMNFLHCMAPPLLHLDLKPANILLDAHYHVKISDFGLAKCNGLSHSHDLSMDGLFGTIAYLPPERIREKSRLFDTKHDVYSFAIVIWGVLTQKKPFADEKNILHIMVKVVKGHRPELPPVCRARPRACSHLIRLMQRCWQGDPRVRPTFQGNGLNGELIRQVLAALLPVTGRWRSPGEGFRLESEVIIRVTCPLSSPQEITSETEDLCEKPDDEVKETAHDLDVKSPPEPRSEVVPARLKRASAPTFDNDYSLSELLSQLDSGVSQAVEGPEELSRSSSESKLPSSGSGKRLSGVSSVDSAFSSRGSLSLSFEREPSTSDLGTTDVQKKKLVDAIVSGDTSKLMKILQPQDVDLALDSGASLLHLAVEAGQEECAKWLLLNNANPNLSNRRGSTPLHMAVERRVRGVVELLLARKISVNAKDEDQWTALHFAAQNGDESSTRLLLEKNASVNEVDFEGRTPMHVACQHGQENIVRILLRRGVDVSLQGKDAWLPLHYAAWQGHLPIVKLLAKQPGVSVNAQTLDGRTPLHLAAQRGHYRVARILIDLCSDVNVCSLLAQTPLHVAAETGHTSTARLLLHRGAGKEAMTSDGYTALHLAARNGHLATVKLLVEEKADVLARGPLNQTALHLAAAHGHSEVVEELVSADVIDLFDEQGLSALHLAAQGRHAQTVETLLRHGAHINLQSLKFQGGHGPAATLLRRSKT

[12] = molecular target: RAF proto-oncogene serine/threonine-protein kinase (Homo sapiens) (UniProt P04049); assay: Inhibition of RAF1 at 10 uM; details: values are per cent of control
[13] = molecular target: Ephrin type-B receptor 1 (Homo sapiens) (UniProt P54762); assay: Inhibition of EPHB1 at 10 uM; details: values are per cent of control
[14] = molecular target: MAP kinase-activated protein kinase 5 (Homo sapiens) (UniProt Q8IW41); assay: Inhibition of MAPKAPK5 at 10 uM; details: values are per cent of control
[15] = molecular target: Cyclin-dependent kinase 7 (Homo sapiens) (UniProt P50613); assay: Inhibition of CDK7 at 10 uM; values are per cent of control
[16] = molecular target: Mitogen-activated protein kinase 6 (Homo sapiens) (UniProt Q16659); assay: Inhibition of ERK3 at 10 uM; details: values are per cent of control
[17] = molecular target: Phosphatidylinositol 4-phosphate 5-kinase type-1 alpha (Homo sapiens) (UniProt Q99755); assay: Inhibition of PIP5K1A at 10 uM
[18] = system: Receptor-type tyrosine-protein kinase FLT3 (Homo sapiens), P36888 [K663Q]; assay: Inhibition of FLT3 K663Q mutant at 10 uM; details: values are per cent of control
[19] = molecular target: Serine/threonine-protein kinase D2 (Homo sapiens) (UniProt Q9BZL6); assay: Inhibition of PRKD2 at 10 uM
[20] = molecular target: Tyrosine-protein kinase receptor TYRO3 (Homo sapiens) (UniProt Q06418); assay: Inhibition of TYRO3 at 10 uM; details: values are per cent of control
[21] = system: Receptor-type tyrosine-protein kinase FLT3 (Homo sapiens), P36888 [N841I]; assay: Inhibition of FLT3 N841I mutant at 10 uM; details: values are per cent of control
[22] = molecular target: Ephrin type-B receptor 4 (Homo sapiens) (UniProt P54760); assay: Inhibition of EPHB4 at 10 uM; details: values are per cent of control
Ephrin type-B receptor 4 (Homo sapiens), sequence (P54760 whole entry): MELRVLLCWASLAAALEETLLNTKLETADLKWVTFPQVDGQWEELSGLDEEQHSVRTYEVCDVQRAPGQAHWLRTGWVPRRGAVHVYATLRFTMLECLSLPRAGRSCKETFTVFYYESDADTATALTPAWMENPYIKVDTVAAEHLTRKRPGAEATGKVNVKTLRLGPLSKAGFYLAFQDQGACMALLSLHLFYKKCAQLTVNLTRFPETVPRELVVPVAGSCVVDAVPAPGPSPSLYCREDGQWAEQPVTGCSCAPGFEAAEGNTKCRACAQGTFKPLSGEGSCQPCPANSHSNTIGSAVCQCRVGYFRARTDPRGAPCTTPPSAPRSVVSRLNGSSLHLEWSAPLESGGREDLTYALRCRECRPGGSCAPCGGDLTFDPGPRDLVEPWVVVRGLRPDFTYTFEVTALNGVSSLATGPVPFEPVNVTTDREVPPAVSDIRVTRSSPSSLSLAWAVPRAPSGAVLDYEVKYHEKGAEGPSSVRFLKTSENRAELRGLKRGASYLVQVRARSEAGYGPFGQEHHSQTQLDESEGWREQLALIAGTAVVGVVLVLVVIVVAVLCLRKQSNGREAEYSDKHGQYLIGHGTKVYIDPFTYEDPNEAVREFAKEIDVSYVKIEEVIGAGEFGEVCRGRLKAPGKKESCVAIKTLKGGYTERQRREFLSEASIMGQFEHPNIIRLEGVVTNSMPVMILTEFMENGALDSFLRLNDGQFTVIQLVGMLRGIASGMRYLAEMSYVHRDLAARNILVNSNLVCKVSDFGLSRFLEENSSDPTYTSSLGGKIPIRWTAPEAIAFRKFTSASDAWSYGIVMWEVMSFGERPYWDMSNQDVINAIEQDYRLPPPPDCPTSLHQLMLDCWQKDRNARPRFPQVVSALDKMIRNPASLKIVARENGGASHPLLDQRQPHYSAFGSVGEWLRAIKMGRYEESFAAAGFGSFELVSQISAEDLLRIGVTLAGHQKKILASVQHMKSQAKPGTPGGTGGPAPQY

[23] = molecular target: Serine/threonine-protein kinase 17B (Homo sapiens) (UniProt O94768); assay: Inhibition of DRAK2 at 10 uM; details: values are per cent of control
[24] = system: eIF-2-alpha kinase GCN2 (Homo sapiens), Q9P2K8 [S808G]; assay: Inhibition of GCN2 Domain2 S808G mutant at 10 uM; details: values are per cent of control
eIF-2-alpha kinase GCN2 (Homo sapiens), Q9P2K8 [S808G], sequence (Q9P2K8 whole entry S808G, the tested form may be a part): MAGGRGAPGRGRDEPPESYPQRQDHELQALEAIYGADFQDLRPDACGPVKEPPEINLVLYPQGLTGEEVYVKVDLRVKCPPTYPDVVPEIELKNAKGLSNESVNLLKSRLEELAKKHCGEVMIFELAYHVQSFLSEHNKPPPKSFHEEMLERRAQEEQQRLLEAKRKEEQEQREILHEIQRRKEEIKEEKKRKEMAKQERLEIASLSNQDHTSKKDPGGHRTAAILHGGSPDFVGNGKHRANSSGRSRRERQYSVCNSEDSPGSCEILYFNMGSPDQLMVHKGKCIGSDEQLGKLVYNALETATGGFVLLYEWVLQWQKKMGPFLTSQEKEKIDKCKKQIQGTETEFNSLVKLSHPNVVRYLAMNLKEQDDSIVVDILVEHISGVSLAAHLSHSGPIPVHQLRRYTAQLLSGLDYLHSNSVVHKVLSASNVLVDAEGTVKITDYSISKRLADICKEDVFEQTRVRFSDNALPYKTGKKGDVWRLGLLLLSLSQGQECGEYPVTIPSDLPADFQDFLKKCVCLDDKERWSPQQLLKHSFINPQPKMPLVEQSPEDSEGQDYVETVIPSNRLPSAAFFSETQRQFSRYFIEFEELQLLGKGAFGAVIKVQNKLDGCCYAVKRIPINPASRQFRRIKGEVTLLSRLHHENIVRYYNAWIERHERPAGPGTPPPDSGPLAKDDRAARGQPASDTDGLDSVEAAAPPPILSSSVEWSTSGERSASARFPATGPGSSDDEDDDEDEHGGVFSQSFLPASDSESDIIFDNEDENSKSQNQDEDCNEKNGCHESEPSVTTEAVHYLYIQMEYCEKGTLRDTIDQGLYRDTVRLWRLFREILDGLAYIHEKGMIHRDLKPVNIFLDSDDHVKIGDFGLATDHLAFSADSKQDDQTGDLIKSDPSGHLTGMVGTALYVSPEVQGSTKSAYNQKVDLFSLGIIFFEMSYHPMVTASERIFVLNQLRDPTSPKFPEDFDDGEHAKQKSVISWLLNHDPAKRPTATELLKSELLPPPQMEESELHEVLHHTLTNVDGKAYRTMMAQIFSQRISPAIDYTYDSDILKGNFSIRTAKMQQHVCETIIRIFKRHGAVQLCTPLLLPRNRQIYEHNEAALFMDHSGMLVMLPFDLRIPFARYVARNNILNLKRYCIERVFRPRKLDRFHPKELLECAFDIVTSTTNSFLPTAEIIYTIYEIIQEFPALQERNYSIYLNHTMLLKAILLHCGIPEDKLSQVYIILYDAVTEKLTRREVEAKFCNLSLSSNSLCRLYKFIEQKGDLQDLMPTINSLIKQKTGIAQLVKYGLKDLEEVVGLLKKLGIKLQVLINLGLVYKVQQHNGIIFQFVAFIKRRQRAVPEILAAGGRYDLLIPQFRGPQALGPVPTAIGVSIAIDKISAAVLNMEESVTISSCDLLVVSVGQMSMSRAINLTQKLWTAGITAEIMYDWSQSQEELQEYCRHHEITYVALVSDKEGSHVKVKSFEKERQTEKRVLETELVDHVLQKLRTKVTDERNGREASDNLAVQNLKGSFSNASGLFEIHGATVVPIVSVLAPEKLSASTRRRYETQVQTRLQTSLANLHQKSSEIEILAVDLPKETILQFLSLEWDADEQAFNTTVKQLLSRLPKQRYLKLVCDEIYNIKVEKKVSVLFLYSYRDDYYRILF

[25] = molecular target: Serine/threonine-protein kinase NLK (Homo sapiens) (UniProt Q9UBE8); assay: Inhibition of NLK at 10 uM
[26] = molecular target: Calcium/calmodulin-dependent protein kinase kinase 2 (Homo sapiens) (UniProt Q96RR4); assay: Inhibition of CAMKK2 at 10 uM; details: values are per cent of control
[27] = molecular target: Eukaryotic translation initiation factor 2-alpha kinase 1 (Homo sapiens) (UniProt Q9BQI3); assay: Inhibition of EIF2AK1 at 10 uM; details: values are per cent of control
[28] = molecular target: Dual specificity mitogen-activated protein kinase kinase 3 (Homo sapiens) (UniProt P46734); assay: Inhibition of MEK3 at 10 uM; details: values are per cent of control
[29] = molecular target: Leucine-rich repeat serine/threonine-protein kinase 2 (Homo sapiens) (UniProt Q5S007); assay: Inhibition of LRRK2 at 10 uM; details: values are per cent of control
[30] = molecular target: Casein kinase I isoform gamma-2 (Homo sapiens) (UniProt P78368); assay: Inhibition of CSNK1G2 at 10 uM; values are per cent of control
[31] = molecular target: Mitogen-activated protein kinase kinase kinase kinase 2 (Homo sapiens) (UniProt Q12851); assay: Inhibition of MAP4K2 at 10 uM; details: values are per cent of control
[32] = molecular target: Glycogen synthase kinase-3 beta (Homo sapiens) (UniProt P49841); assay: Inhibition of GSK3B at 10 uM; details: values are per cent of control
Glycogen synthase kinase-3 beta (Homo sapiens), sequence (P49841 whole entry, looked up): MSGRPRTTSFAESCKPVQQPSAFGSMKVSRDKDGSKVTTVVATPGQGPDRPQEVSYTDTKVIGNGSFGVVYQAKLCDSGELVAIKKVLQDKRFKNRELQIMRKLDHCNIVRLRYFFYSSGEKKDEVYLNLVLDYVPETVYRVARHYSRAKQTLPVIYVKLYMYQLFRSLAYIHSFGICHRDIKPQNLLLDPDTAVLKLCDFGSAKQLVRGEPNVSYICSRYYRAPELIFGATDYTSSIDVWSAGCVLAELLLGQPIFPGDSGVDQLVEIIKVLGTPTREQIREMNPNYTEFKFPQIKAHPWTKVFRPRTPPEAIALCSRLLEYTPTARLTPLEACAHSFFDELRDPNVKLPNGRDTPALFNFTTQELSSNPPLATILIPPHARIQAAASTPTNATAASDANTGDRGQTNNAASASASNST

[33] = system: Tyrosine-protein kinase ABL1 (Homo sapiens), P00519 [F317I]; assay: Inhibition of non phosphorylated ABL1 F317I mutant at 10 uM; details: values are per cent of control
[34] = molecular target: Fibroblast growth factor receptor 1 (Homo sapiens) (UniProt P11362); assay: Inhibition of FGFR1 at 10 uM; details: values are per cent of control
Fibroblast growth factor receptor 1 (Homo sapiens), sequence (P11362 22-822 limits assumed): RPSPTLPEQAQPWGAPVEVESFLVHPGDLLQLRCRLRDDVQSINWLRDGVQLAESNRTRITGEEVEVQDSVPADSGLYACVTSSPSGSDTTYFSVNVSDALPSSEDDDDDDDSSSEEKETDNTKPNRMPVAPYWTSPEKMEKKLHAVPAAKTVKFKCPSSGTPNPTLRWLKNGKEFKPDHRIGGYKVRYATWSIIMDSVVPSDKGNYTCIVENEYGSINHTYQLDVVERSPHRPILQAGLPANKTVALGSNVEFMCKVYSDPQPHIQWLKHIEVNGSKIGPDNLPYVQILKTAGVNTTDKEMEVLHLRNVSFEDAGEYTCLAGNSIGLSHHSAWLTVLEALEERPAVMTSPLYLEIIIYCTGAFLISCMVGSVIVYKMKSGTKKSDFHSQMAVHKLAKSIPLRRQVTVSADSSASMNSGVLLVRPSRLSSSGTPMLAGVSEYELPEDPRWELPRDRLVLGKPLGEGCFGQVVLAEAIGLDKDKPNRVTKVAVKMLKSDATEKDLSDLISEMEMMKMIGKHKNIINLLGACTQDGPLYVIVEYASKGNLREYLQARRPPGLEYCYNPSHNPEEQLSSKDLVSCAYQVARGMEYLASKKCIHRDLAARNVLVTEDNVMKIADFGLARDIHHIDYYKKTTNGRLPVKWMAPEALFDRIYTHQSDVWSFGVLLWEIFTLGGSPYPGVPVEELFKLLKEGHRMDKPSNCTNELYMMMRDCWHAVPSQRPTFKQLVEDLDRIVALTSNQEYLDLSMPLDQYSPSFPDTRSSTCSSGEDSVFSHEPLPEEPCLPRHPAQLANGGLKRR

[35] = molecular target: Tyrosine-protein kinase SYK (Homo sapiens) (UniProt P43405); assay: Inhibition of SYK at 10 uM
[36] = molecular target: Inhibitor of nuclear factor kappa-B kinase subunit alpha (Homo sapiens) (UniProt O15111); assay: Inhibition of IKK-alpha at 10 uM; details: values are per cent of control
[37] = molecular target: Ephrin type-A receptor 7 (Homo sapiens) (UniProt Q15375); assay: Inhibition of EPHA7 at 10 uM; details: values are per cent of control
[38] = molecular target: Leukocyte tyrosine kinase receptor (Homo sapiens) (UniProt P29376); assay: Inhibition of LTK at 10 uM; details: values are per cent of control
[39] = molecular target: 5'-AMP-activated protein kinase catalytic subunit alpha-1 (Homo sapiens) (UniProt Q13131); assay: Inhibition of AMPK-alpha1 at 10 uM; details: values are per cent of control
[40] = molecular target: Dual specificity mitogen-activated protein kinase kinase 5 (Homo sapiens) (UniProt Q13163); assay: Inhibition of MEK5 at 10 uM; details: values are per cent of control
[41] = system: Mast/stem cell growth factor receptor Kit (Homo sapiens), P10721 [V559D,T670I]; assay: Inhibition of KIT V559D, T670I mutant at 10 uM; details: values are per cent of control

CCN1CCN(Cc2ccc(NC(=O)c3ccc(C)c(C#Cc4cccnc4)c3)cc2C(F)(F)F)CC1
level, % of control [1]: 1.2% | level, % of control [2]: 100% | residual binding, % of control [3]: 1.4% | level, % of control [4]: 48% | inhibition [5]: 92% | inhibition [6]: 100% | inhibition [7]: 100% | level, % of control [8]: 92% | residual binding, % of control [9]: 1.4% | residual binding, % of control [10]: 2.8% | inhibition [11]: 48% | residual binding, % of control [12]: 0.5% | residual binding, % of control [13]: 0.5% | residual binding, % of control [14]: 95% | level, % of control [15]: 1.6% | residual binding, % of control [16]: 100% | inhibition [17]: 79% | residual binding, % of control [18]: 0% | inhibition [19]: 56% | residual binding, % of control [20]: 100% | residual binding, % of control [21]: 0% | residual binding, % of control [22]: 1.6% | residual binding, % of control [23]: 100% | residual binding, % of control [24]: 1.3% | inhibition [25]: 8.2% | residual binding, % of control [26]: 7.8% | residual binding, % of control [27]: 83% | residual binding, % of control [28]: 86% | residual binding, % of control [29]: 3.4% | level, % of control [30]: 100% | residual binding, % of control [31]: 0% | residual binding, % of control [32]: 99% | residual binding, % of control [33]: 8.8% | residual binding, % of control [34]: 0.25% | inhibition [35]: 13% | residual binding, % of control [36]: 0% | residual binding, % of control [37]: 0.55% | residual binding, % of control [38]: 4.5% | residual binding, % of control [39]: 1.2% | residual binding, % of control [40]: 0.4% | residual binding, % of control [41]: 0%

CCN1CCN(Cc2ccc(NC(=O)c3ccc(C)c(C#Cc4cnc5[nH]ccc5c4)c3)cc2C(F)(F)F)CC1
level, % of control [1]: 0.25% | level, % of control [2]: 100% | residual binding, % of control [3]: 4.8% | level, % of control [4]: 26% | inhibition [5]: 100% | inhibition [6]: 96% | inhibition [7]: 100% | level, % of control [8]: 88% | residual binding, % of control [9]: 1.4% | residual binding, % of control [10]: 2.4% | inhibition [11]: 8% | residual binding, % of control [12]: 0.95% | residual binding, % of control [13]: 0.35% | residual binding, % of control [14]: 98% | level, % of control [15]: 4% | residual binding, % of control [16]: 100% | inhibition [17]: 10% | residual binding, % of control [18]: 0% | inhibition [19]: 13% | residual binding, % of control [20]: 38% | residual binding, % of control [21]: 0% | residual binding, % of control [22]: 0.8% | residual binding, % of control [23]: 12% | residual binding, % of control [24]: 0.25% | inhibition [25]: 13% | residual binding, % of control [26]: 27% | residual binding, % of control [27]: 72% | residual binding, % of control [28]: 67% | residual binding, % of control [29]: 6.2% | level, % of control [30]: 14% | residual binding, % of control [31]: 0% | residual binding, % of control [32]: 90% | residual binding, % of control [33]: 8.8% | residual binding, % of control [34]: 0.15% | inhibition [35]: 1% | residual binding, % of control [36]: 0.45% | residual binding, % of control [37]: 0.1% | residual binding, % of control [38]: 2.5% | residual binding, % of control [39]: 0.8% | residual binding, % of control [40]: 0.4% | residual binding, % of control [41]: 0%
